Laboratory results from US11149253B2, “Small molecule compound combination for reprogramming digestive tract derived epithelial cells to endodermal stem/progenitor cells, reprogramming method and application” (INSTITUE OF TRANSFUSION MEDICINE, ACADEMY OF MILITARY …, priority 2016, dated 2021).

Assays:
[1] = system: human gastric epithelial cells (hGECs); assay: Reprogramming of human gastric epithelial cells (hGECs) to induced endodermal progenitor cells (hiEndoPCs); clonal formation efficiency; type: cell-based; conditions: aGSEMFs supporting cells; for clonal formation efficiency when the compound was removed from 8M: removed one by one from 8 small molecule compounds (8M), day 15; for clonal formation efficiency when the compound was removed from BBRS: removed one by one from BBRS combination
Protocol: 1. Proliferation of the initiating cells: Primary isolated human gastric epithelial cells (hGECs) or duodenal epithelial cells (hDECs) were used as initiating cells, and cultured in Kubta medium (prepared according to the literature, literature source: Kubota, H., and Reid, L. M. (2000). Clonogenic hepatoblasts, common precursors for hepatocytic and biliary lineages, are lacking classical major histocompatibility complex class I antigen. Proc. Natl. Acad. Sci. USA 97, 12132-12137) at 37° C. in a 5% CO2 incubator for 4-5 days, and the initiating cells were expanded.
2. Preparation of trophoblast cells: adult human gastric subepithelial myofibroblasts (aGSEMFs, the cells were obtained by separation of gastric tissue matrix layers, frozen in large quantities after culture and proliferation, and resuscitated in advance when necessary) as trophoblast cells were treated with mitomycin-C (10 μg/mL, for the purpose of losing mitosis of trophoblast cells) for 2-3 hours, washed with PBS for 3-4 times, the cells were digested by TrypLE enzyme, and then the cells were washed;
3. When human gastric epithelial cells (hGECs) or duodenal epithelial cells (hDECs) were cultured until day 5-6, the treated gastric subepithelial myofibroblasts were added at a suitable density (generally, density of 1-3×10^5 per square centimeter) to human gastric epithelial cells (hGECs) or duodenal epithelial cells (hDECs) being cultured, and placed at 37° C. in a 5% CO2 incubator overnight (12-16 hours);
4. Reprogramming culture: on the second day after the addition of gastric subepithelial myofibroblasts, the medium was changed to 8M reprogramming medium, and changed every 2-3 days, and continuous observation was performed. Generally, induced endodermal progenitor cells (hiEndoPCs) were obtained after culturing for 1 week or 2 weeks more (7-15 days).
1. Calculation of the total number of clones.
2. Calculation of the area of different clones using the microscope graticule: the area of each microscope microlattice was 0.0625 mm^2, and the number of lattices occupied by the clone multiplied by 0.0625 mm^2 was the area of each clone.
3. The evaluation of the efficiency of reprogramming is proformed by colligating number of clones and the area of the clones.
Since the clonal morphology produced on day 15 of reprogramming was most typical (FIGS. 8E and 8F), colony formation efficiency was usually calculated at this time point. However, the growth rate of clones was faster from day 7 to day 15, and many clones were fused together to form a large clone upon the time point for calculation (FIG. 8B), so the number of clones was less upon calculation, but the total area was increasing. In order to reflect the reprogramming effect more objectively, the present experiment colligated the total number of clones and the number of clones and clone area under different areas, as the calculation method of reprogramming efficiency. Calculation of the area of different clones using the microscope graticule: the area of each microscope microlattice was 0.0625 mm^2, and the number of lattices occupied by the clone multiplied by 0.0625 mm^2 was the area of each clone. The calculation method for different sizes of cloned areas was shown in FIG. 9, and the calculation results were shown in Table 4.
1) The trophoblast cells screened in the second part were used as the supporting cells, and the small molecules were removed one by one based on the culture conditions for above-mentioned 8 small molecule compounds (8M), and the indispensable small molecules were first screened.
2) Based on the small molecule compound combinations screened in the step 1), the small molecule compounds were successively removed one by one so that the best small molecule compound combination (with highest reprogramming efficiency) and the combination with fewest small molecule compounds (guaranteed for the formation of the clone) were finally found. […]

hiEndoPCs-Pans = assay: C-peptide release of hiEndoPC-derived pancreatic cells (ELISA); type: cell-based, human; conditions: insulin secretion promoter stimulation of hiEndoPCs-Pans
Protocol: 2. The adhered cells were induced to differentiate to the pancreas according to four stages.
2.1 MCDB 131 medium (purchased from Gibco)+1.5 g/L of sodium bicarbonate+2 mM (concentration) 2 mM of Glutamax (Glutamine)+10 mM of final glucose concentration (glucose)+2% of BSA (bovine serum albumin)+0.25 mM of ascorbic acid (vitamin C)+50 ng/mL of FGF7 (fibroblast growth factor 7)+0.25 μM of SANT-1+1 μM of retinoic acid (RA)+100 nM of LDN193189+1:200 ITS-X (insulin-Transferrin-selenium-ethanolamine complex solution)+200 nM TPB, cultured for 2 days.
2.2 MCDB 131 medium+1.5 g/L of sodium bicarbonate+2 mM of Glutamax+10 mM of final glucose concentration+2% of BSA+0.25 mM of ascorbic acid+2 ng/mL of FGF7+0.25 μM of SANT-1+0.1 μM of retinoic acid+200 nM of LDN193189+1:200 ITS-X+100 nM of TPB, cultured for 2 days. […]
13. The OD value was measured at a wavelength of 450 nm on a microplate reader within 30 minutes, and the results were calculated.

## COC(=O)C1=C(C)NC(C)=C([N+](=O)[O-])C1c1ccccc1C(F)(F)F (stereo not shown) [Bay K 8644]
[1]
  clonal formation efficiency when the compound was removed from 8M: obviously decreased
  clonal formation efficiency when the compound was removed from BBRS: significantly decreased

## COc1cc2nc(N3CCCN(C)CC3)nc(NC3CCN(Cc4ccccc4)CC3)c2cc1OC [Bix01294]
[1]
  clonal formation efficiency when the compound was removed from 8M: obviously decreased
  clonal formation efficiency when the compound was removed from BBRS: significantly decreased

## [Cl-].[K+] [KCL]
hiEndoPCs-Pans
  release of C peptide: significantly increased

## O=C(NOC[C@H](O)CO)c1ccc(F)c(F)c1Nc1ccc(I)cc1F [PD0325901]
[1]
  clonal formation efficiency when the compound was removed from 8M: increased

## O=C(O)/C=C(/CCc1ccc(Cl)cc1)c1ccccc1 [PS48]
[1]
  clonal formation efficiency when the compound was removed from 8M: increased

## O=C(O)C(Cc1c[nH]c2ccccc12)N1C(=O)c2ccccc2C1=O (stereo not shown) [RG108]
[1]
  clonal formation efficiency when the compound was removed from 8M: obviously decreased
  clonal formation efficiency when the compound was removed from BBRS: significantly decreased

## NC(=O)c1ccc(-c2nc(-c3ccc4c(c3)OCO4)c(-c3ccccn3)[nH]2)cc1 [SB431542]
[1]; SB431542 as basis
  clonal formation efficiency compared with BBRS: not as good as the optimal combination of BBRS
  clone formation with the fewest small molecules: capable for forming the clones
[1]
  clonal formation efficiency when the compound was removed from 8M: clones were not produced
  clonal formation efficiency when the compound was removed from BBRS: no clones were formed

## CCCCNC(=O)NS(=O)(=O)c1ccc(C)cc1 [Tolbutamiden]
hiEndoPCs-Pans
  release of C peptide: significantly increased

## CCCC(CCC)C(=O)O [VPA, Valproic Acid]
[1]
  clonal formation efficiency when the compound was removed from 8M: did not change significantly

## Fructose diphosphate [FBP]
[1]
  clonal formation efficiency when the compound was removed from 8M: increased
